From ChEMBL document CHEMBL1147911, “Synthesis and evaluation of novel benzimidazole derivative [Bz-Im] and its radio/biological studies” (Bioorg Med Chem Lett, 2007)
One block for each molecule: values may come before it.

How the values were obtained:
[1] = biological target: T1, Cholecystokinin receptor type A (Rattus norvegicus, UniProt P30551); assay: Displacement of [125I](BH)CCK8 from rat CCK1 after 30 mins by receptor binding assay
T1 sequence (P30551 whole entry): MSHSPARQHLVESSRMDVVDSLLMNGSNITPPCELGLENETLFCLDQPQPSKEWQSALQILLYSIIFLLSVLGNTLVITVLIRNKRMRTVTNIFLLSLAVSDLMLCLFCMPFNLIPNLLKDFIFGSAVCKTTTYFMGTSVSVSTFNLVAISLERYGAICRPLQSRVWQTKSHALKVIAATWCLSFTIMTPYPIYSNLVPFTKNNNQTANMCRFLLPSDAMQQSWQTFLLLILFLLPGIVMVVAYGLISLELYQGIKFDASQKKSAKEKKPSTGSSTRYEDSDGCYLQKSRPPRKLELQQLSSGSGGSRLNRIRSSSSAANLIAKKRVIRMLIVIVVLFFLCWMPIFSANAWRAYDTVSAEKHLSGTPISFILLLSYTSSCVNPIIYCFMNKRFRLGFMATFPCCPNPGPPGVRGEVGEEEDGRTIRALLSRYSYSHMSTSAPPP

[2] = biological target: T2, Cholecystokinin receptor type A (Cavia porcellus, UniProt Q63931); assay: Displacement of [125I](BH)CCK8 from Guinea pig CCK1 after 30 mins by receptor binding assay
T2 sequence (Q63931 whole entry): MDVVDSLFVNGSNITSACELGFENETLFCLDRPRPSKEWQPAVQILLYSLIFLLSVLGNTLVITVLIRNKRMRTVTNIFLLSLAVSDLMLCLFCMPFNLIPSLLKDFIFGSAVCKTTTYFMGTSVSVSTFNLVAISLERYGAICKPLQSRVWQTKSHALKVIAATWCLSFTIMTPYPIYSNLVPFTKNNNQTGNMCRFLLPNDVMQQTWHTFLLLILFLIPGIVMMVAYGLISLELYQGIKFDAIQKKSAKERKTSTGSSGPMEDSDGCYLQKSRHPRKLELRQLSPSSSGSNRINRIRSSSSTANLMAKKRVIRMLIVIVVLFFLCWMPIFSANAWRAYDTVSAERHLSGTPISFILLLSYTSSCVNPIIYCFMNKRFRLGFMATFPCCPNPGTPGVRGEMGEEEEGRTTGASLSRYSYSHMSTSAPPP

[3] = tested on: Stomach; assay: Biodistribution in Albino mouse stomach at 10 uCi after 2 hr; format: ADME, organism-based; conditions: in vivo
[4] = tested on: Spleen; assay: Biodistribution in Albino mouse spleen at 10 uCi after 1 hr; format: ADME, organism-based; conditions: in vivo
[5] = tested on: Brain; assay: Biodistribution in Albino mouse brain at 10 uCi after 8 hr; format: ADME, organism-based; conditions: in vivo
[6] = tested on: Blood; assay: Biodistribution in Albino mouse blood at 10 uCi after 1 hr; format: ADME, organism-based; conditions: in vivo
[7] = tested on: Kidney; assay: Biodistribution in Albino mouse kidney at 10 uCi after 8 hr; format: ADME, organism-based; conditions: in vivo
[8] = tested on: Liver; assay: Biodistribution in Albino mouse liver at 10 uCi after 1 hr; format: ADME, organism-based; conditions: in vivo
[9] = tested on: Stomach; assay: Biodistribution in Albino mouse stomach at 10 uCi after 8 hr; format: ADME, organism-based; conditions: in vivo
[10] = tested on: Aspergillus flavus; assay: Antifungal activity against Aspergillus flavus at 20 ug/ml after seven days by agar plate method; format: functional; conditions: 168 h
[11] = tested on: Heart; assay: Biodistribution in Albino mouse heart at 10 uCi after 4 hr; format: ADME, organism-based; conditions: in vivo
[12] = tested on: Heart; assay: Biodistribution in Albino mouse heart at 10 uCi after 8 hr; format: ADME, organism-based; conditions: in vivo
[13] = tested on: Kidney; assay: Biodistribution in Albino mouse kidney at 10 uCi after 2 hr; format: ADME, organism-based; conditions: in vivo
[14] = tested on: Aspergillus niger; assay: Antifungal activity against Aspergillus niger at 50 ug/ml after seven days by agar plate method; format: functional; conditions: 168 h
[15] = tested on: Stomach; assay: Biodistribution in Albino mouse stomach at 10 uCi after 4 hr; format: ADME, organism-based; conditions: in vivo
[16] = tested on: Stomach; assay: Biodistribution in Albino mouse stomach at 10 uCi after 1 hr; format: ADME, organism-based; conditions: in vivo
[17] = tested on: Intestine; assay: Biodistribution in Albino mouse intestine at 10 uCi after 1 hr; format: ADME, organism-based; conditions: in vivo
[18] = tested on: Liver; assay: Biodistribution in Albino mouse liver at 10 uCi after 2 hr; format: ADME, organism-based; conditions: in vivo
[19] = tested on: Intestine; assay: Biodistribution in Albino mouse intestine at 10 uCi after 6 hr; format: ADME, organism-based; conditions: in vivo
[20] = tested on: Liver; assay: Biodistribution in Albino mouse liver at 10 uCi after 6 hr; format: ADME, organism-based; conditions: in vivo
[21] = tested on: Kidney; assay: Biodistribution in Albino mouse kidney at 10 uCi after 4 hr; format: ADME, organism-based; conditions: in vivo
[22] = tested on: Brain; assay: Biodistribution in Albino mouse brain at 10 uCi after 4 hr; format: ADME, organism-based; conditions: in vivo
[23] = tested on: Aspergillus flavus; assay: Antifungal activity against Aspergillus flavus at 50 ug/ml after seven days by agar plate method; format: functional; conditions: 168 h
[24] = tested on: Heart; assay: Biodistribution in Albino mouse heart at 10 uCi after 6 hr; format: ADME, organism-based; conditions: in vivo
[25] = tested on: Aspergillus flavus; assay: Antifungal activity against Aspergillus flavus at 10 ug/ml after seven days by agar plate method; format: functional; conditions: 168 h
[26] = tested on: Kidney; assay: Biodistribution in Albino mouse kidney at 10 uCi after 1 hr; format: ADME, organism-based; conditions: in vivo
[27] = tested on: Blood; assay: Biodistribution in Albino mouse blood at 10 uCi after 4 hr; format: ADME, organism-based; conditions: in vivo
[28] = tested on: Spleen; assay: Biodistribution in Albino mouse spleen at 10 uCi after 2 hr; format: ADME, organism-based; conditions: in vivo
[29] = tested on: Heart; assay: Biodistribution in Albino mouse heart at 10 uCi after 1 hr; format: ADME, organism-based; conditions: in vivo
[30] = tested on: Intestine; assay: Biodistribution in Albino mouse intestine at 10 uCi after 8 hr; format: ADME, organism-based; conditions: in vivo
[31] = tested on: Spleen; assay: Biodistribution in Albino mouse spleen at 10 uCi after 6 hr; format: ADME, organism-based; conditions: in vivo
[32] = tested on: Spleen; assay: Biodistribution in Albino mouse spleen at 10 uCi after 4 hr; format: ADME, organism-based; conditions: in vivo
[33] = tested on: Spleen; assay: Biodistribution in Albino mouse spleen at 10 uCi after 8 hr; format: ADME, organism-based; conditions: in vivo
[34] = tested on: Liver; assay: Biodistribution in Albino mouse liver at 10 uCi after 8 hr; format: ADME, organism-based; conditions: in vivo
[35] = tested on: Kidney; assay: Biodistribution in Albino mouse kidney at 10 uCi after 6 hr; format: ADME, organism-based; conditions: in vivo
[36] = tested on: Brain; assay: Biodistribution in Albino mouse brain at 10 uCi after 6 hr; format: ADME, organism-based; conditions: in vivo
[37] = tested on: Aspergillus niger; assay: Antifungal activity against Aspergillus niger at 10 ug/ml after seven days by agar plate method; format: functional; conditions: 168 h
[38] = tested on: Liver; assay: Biodistribution in Albino mouse liver at 10 uCi after 4 hr; format: ADME, organism-based; conditions: in vivo
[39] = tested on: Intestine; assay: Biodistribution in Albino mouse intestine at 10 uCi after 4 hr; format: ADME, organism-based; conditions: in vivo
[40] = tested on: Blood; assay: Biodistribution in Albino mouse blood at 10 uCi after 2 hr; format: ADME, organism-based; conditions: in vivo
[41] = tested on: Heart; assay: Biodistribution in Albino mouse heart at 10 uCi after 2 hr; format: ADME, organism-based; conditions: in vivo
[42] = tested on: Blood; assay: Biodistribution in Albino mouse blood at 10 uCi after 6 hr; format: ADME, organism-based; conditions: in vivo
[43] = tested on: Intestine; assay: Biodistribution in Albino mouse intestine at 10 uCi after 2 hr; format: ADME, organism-based; conditions: in vivo
[44] = tested on: Aspergillus niger; assay: Antifungal activity against Aspergillus niger at 20 ug/ml after seven days by agar plate method; format: functional; conditions: 168 h
[45] = tested on: Blood; assay: Biodistribution in Albino mouse blood at 10 uCi after 8 hr; format: ADME, organism-based; conditions: in vivo
[46] = tested on: Brain; assay: Biodistribution in Albino mouse brain at 10 uCi after 2 hr; format: ADME, organism-based; conditions: in vivo
[47] = tested on: Stomach; assay: Biodistribution in Albino mouse stomach at 10 uCi after 6 hr; format: ADME, organism-based; conditions: in vivo

IC50 [1]: 0.197 µM
IC50 [2]: 16.4 µM
SMILES: O=C1c2ccccc2C(=O)N1Cc1c(O)ccc2c(/C=C/c3ccc(-c4ccccc4)cc3)cc3nc4ccccc4n3c12

Drug uptake [3]: 2.5 % ID/g
Drug uptake [4]: 10 % ID/g
Drug uptake [5]: 1 % ID/g
Drug uptake [6]: 3 % ID/g
Drug uptake [7]: 5 % ID/g
Drug uptake [8]: 18 % ID/g
Drug uptake [9]: 9.5 % ID/g
Drug uptake [11]: 0.3 % ID/g
Drug uptake [12]: 0.2 % ID/g
Drug uptake [13]: 7 % ID/g
Drug uptake [15]: 3 % ID/g
Drug uptake [16]: 1 % ID/g
Drug uptake [17]: 0.5 % ID/g
Drug uptake [18]: 25 % ID/g
Drug uptake [19]: 3 % ID/g
Drug uptake [20]: 15 % ID/g
Drug uptake [21]: 2 % ID/g
Drug uptake [22]: 0.45 % ID/g
IC50 [1]: 0.942 µM
Drug uptake [24]: 0.3 % ID/g
Drug uptake [26]: 5 % ID/g
Drug uptake [27]: 2 % ID/g
Drug uptake [28]: 15 % ID/g
Drug uptake [29]: 1 % ID/g
Drug uptake [30]: 3 % ID/g
Drug uptake [31]: 12 % ID/g
Drug uptake [32]: 14 % ID/g
Drug uptake [33]: 11 % ID/g
Drug uptake [34]: 15 % ID/g
Drug uptake [35]: 5 % ID/g
IC50 [2]: 4.32 µM
Drug uptake [36]: 1 % ID/g
Drug uptake [38]: 18 % ID/g
Drug uptake [39]: 0.2 % ID/g
Drug uptake [40]: 2 % ID/g
Drug uptake [41]: 0.4 % ID/g
Drug uptake [42]: 0.5 % ID/g
Drug uptake [43]: 0.5 % ID/g
Drug uptake [45]: 0.5 % ID/g
Drug uptake [46]: 0.2 % ID/g
Drug uptake [47]: 7 % ID/g
SMILES: O=C1c2ccccc2C(=O)N1Cc1c(O)ccc2c(/C=C/c3ccccc3)cc3nc4ccccc4n3c12
inhibition at 20 µg/mL [10]: 76.7%
inhibition at 50 µg/mL [14]: 84.6%
inhibition at 50 µg/mL [23]: 88.3%
inhibition at 10 µg/mL [25]: 73.3%
inhibition at 10 µg/mL [37]: 60.3%
inhibition at 20 µg/mL [44]: 76.8%

Drug uptake [3]: 2 % ID/g
Drug uptake [4]: 10 % ID/g
Drug uptake [5]: 1 % ID/g
Drug uptake [6]: 2.5 % ID/g
Drug uptake [7]: 4.5 % ID/g
Drug uptake [8]: 16 % ID/g
Drug uptake [9]: 7.5 % ID/g
Drug uptake [11]: 0.2 % ID/g
Drug uptake [12]: 0.2 % ID/g
Drug uptake [13]: 6 % ID/g
Drug uptake [15]: 3 % ID/g
Drug uptake [16]: 1 % ID/g
Drug uptake [17]: 0.5 % ID/g
Drug uptake [18]: 23 % ID/g
Drug uptake [19]: 1 % ID/g
Drug uptake [20]: 15 % ID/g
Drug uptake [21]: 3 % ID/g
Drug uptake [22]: 0.45 % ID/g
IC50 [1]: 0.665 µM
Drug uptake [24]: 0.1 % ID/g
Drug uptake [26]: 5.5 % ID/g
Drug uptake [27]: 2 % ID/g
Drug uptake [28]: 15 % ID/g
Drug uptake [29]: 0.8 % ID/g
Drug uptake [30]: 1 % ID/g
Drug uptake [31]: 16 % ID/g
Drug uptake [32]: 17 % ID/g
Drug uptake [33]: 16 % ID/g
Drug uptake [34]: 15 % ID/g
Drug uptake [35]: 4.5 % ID/g
IC50 [2]: 2.94 µM
Drug uptake [36]: 1 % ID/g
Drug uptake [38]: 14 % ID/g
Drug uptake [39]: 0.2 % ID/g
Drug uptake [40]: 2 % ID/g
Drug uptake [41]: 0.5 % ID/g
Drug uptake [42]: 2.5 % ID/g
Drug uptake [43]: 0.5 % ID/g
Drug uptake [45]: 2.5 % ID/g
Drug uptake [46]: 0.2 % ID/g
Drug uptake [47]: 7 % ID/g
SMILES: O=C1c2ccccc2C(=O)N1Cc1c(O)ccc2c(/C=C/c3ccc(O)cc3)cc3nc4ccccc4n3c12
inhibition at 20 µg/mL [10]: 73.4%
inhibition at 50 µg/mL [14]: 83.6%
inhibition at 50 µg/mL [23]: 92.1%
inhibition at 10 µg/mL [25]: 60.8%
inhibition at 10 µg/mL [37]: 60.7%
inhibition at 20 µg/mL [44]: 83.2%

SMILES: C[C@@H]1[C@H](O)[C@@H](C)/C=C/C=C/C=C/C=C/C=C/C=C/C=C/[C@H](O[C@@H]2O[C@H](C)[C@@H](O)[C@H](N)[C@@H]2O)C[C@@H]2O[C@](O)(C[C@@H](O)C[C@@H](O)[C@H](O)CC[C@@H](O)C[C@@H](O)CC(=O)O[C@H]1C)C[C@H](O)[C@H]2C(=O)O [AMPHOTERICIN B]
inhibition at 20 µg/mL [10]: 86.4%
inhibition at 20 µg/mL [44]: 79.9%
